From publication PMC6332354 (Molecules, 2015)

Experiments:
[1] = tested on: human embryonic lung fibroblast (HELF) cells; test: In vitro cytotoxicity, MTT test; type: cell-based; settings: HELF (WI-38) cells, 48 h incubation
Procedure: In the cytotoxicity experiment, tetrazolium-based colorimetric assay (MTT test) was used to measure the cytotoxic effect of these selected potent compounds on normal cells. Human embryonic lung fibroblast cell line (HELF, WI-38) was purchased from the Cell Resource Center, Chinese Academy of Medical Sciences (Beijing, China). Briefly, cells (5000 per well) were collected and seeded in 96-well plates. After incubation for 24 h, cells were exposed to fresh medium containing various concentrations of test compound at 37 °C. After incubation for 48 h, 20 μL of MTT tetrazolium salt dissolved in phosphate buffered saline (PBS) at a concentration of 5 mg/mL was added to each well and incubated in a CO2 incubator for 4 h. The medium was then aspirated from each well and 150 μL of DMSO was added to dissolve formazan crystals. The absorbance of each well was measured by ELx808 Microplate Reader (BioTek, Winooski, VT, USA) at a test wavelength of 490 nm. TC50, the drug concentration which reduces the cell viability by 50% was calculated by the Logit method.

[2] = molecular target: T1, rat ACC1 (Rattus norvegicus, UniProt P11497); test: ACC1 in vitro assay (Kinase-Glo Plus luminescence); type: biochemical; settings: arithmetic means of three experiments, standard deviation in parentheses
T1 construct: purchased Huawei Pharmaceutical Co. Ltd (Shanghai, China)
Procedure: (§1) To investigate the biological activities of the synthesized compounds, the in vitro inhibitory activities of these compounds against both rat ACC1 and ACC2 were evaluated according to the previous experimental method with some changes. The ACC1 and ACC2 enzymes were supplied by Huawei Pharmaceutical Co. Ltd (Shanghai, China). […] Then, the solution was diluted with buffer solution until it reached the required concentration (1 nM to 10 μM) and 5μL of the dilution was added to a 50 μL reaction mixture containing 30 mM HEPES, pH 7.4, 2 mM MgCl2, 2 mM sodium citrate, 1 mM DTT, 25 μM ATP, 16 mM NaHCO3 and 15 μM acetyl-CoA. All of the enzymatic reactions were conducted at 30 °C for 60 min. The assay was performed using Kinase-Glo Plus luminescence kinase assay kit (Beijing, China), which measures kinase activity by quantifying the amount of ATP remaining in solution following a kinase reaction. The luminescent signal from the assay […] with the amount of kinase activity. The same concentrations of DMSO were tested in parallel and used as background control. The inhibition percentage was expressed as the average value from three independent experiments.

[3] = molecular target: T2, rat ACC2 (Rattus norvegicus, UniProt D3ZBE2); test: ACC2 in vitro assay (Kinase-Glo Plus luminescence); type: biochemical; settings: arithmetic means of three experiments, standard deviation in parentheses
T2 construct: purchased Huawei Pharmaceutical Co. Ltd (Shanghai, China)
Procedure: as §1

[4] = tested on: ACC1; parameters: method as in PMID 12842871, PMID 25333641; settings: ACC1 from mammalia; read-out: IC50 against ACC1; cited from earlier work
[5] = tested on: ACC2; parameters: method as in PMID 12842871, PMID 25333641; settings: ACC2 from mammalia; read-out: IC50 against ACC2; cited from earlier work

T2 sequence (D3ZBE2 17-2459): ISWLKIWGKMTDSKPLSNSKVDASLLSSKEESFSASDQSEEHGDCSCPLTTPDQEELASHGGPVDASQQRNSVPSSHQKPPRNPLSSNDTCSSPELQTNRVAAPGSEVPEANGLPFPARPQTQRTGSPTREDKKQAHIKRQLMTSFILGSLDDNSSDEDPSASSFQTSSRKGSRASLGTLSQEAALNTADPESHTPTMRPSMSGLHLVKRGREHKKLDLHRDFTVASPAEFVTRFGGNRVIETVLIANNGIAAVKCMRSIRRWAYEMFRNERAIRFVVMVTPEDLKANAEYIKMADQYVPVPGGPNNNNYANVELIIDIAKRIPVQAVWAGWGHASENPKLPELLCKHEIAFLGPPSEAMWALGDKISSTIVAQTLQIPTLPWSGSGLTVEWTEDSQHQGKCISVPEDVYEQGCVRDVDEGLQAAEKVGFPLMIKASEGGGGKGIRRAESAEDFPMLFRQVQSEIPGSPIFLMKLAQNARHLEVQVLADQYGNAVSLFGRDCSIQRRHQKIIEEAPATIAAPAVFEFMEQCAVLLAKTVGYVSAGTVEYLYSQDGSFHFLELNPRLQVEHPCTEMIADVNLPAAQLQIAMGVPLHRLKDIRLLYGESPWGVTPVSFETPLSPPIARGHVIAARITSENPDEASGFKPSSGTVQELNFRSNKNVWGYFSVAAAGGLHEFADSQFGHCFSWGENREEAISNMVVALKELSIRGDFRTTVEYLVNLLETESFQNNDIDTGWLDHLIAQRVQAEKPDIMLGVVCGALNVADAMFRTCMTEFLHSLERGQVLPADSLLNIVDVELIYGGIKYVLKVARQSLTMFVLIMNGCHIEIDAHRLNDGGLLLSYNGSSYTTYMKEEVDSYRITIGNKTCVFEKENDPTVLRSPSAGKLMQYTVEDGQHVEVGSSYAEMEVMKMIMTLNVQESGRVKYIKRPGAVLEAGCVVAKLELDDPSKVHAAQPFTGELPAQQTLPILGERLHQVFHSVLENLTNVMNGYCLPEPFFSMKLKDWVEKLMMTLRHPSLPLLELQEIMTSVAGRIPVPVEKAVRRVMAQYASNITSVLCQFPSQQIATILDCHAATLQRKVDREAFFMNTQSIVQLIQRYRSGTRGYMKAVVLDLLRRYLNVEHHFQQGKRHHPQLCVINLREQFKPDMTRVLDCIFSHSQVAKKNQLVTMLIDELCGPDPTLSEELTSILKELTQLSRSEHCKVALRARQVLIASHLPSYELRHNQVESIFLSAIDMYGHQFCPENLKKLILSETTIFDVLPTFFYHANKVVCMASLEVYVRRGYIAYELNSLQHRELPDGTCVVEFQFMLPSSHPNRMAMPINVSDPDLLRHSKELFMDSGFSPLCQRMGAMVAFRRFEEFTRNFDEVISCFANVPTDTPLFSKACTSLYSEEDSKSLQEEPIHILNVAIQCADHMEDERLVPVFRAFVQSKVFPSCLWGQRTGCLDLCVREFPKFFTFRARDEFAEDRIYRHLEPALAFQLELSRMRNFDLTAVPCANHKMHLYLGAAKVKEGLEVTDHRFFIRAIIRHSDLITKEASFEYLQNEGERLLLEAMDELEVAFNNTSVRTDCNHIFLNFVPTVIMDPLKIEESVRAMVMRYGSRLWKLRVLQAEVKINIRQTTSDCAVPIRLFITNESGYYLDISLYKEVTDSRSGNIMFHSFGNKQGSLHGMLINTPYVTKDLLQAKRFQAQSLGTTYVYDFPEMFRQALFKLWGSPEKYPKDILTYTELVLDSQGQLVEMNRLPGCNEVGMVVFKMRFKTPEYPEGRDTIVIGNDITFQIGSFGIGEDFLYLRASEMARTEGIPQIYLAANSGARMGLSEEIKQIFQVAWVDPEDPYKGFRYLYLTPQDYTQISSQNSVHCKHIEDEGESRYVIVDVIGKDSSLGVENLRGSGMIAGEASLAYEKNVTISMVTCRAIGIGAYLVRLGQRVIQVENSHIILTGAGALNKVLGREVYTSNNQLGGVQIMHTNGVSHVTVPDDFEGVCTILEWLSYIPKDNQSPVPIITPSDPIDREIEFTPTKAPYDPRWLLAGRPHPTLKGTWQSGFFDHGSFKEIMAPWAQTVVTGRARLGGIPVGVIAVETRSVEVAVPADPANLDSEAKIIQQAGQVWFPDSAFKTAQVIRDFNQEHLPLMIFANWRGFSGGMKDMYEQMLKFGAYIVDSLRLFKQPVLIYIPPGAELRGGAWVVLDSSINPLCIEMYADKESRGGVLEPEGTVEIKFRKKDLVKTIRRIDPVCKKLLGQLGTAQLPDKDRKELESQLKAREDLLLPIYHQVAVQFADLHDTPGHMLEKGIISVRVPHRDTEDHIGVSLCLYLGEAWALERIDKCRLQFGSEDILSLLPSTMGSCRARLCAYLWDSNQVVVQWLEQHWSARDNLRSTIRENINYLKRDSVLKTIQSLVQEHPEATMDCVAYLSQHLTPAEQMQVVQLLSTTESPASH

COc1ccc(-c2cc(C(=O)N3CCC(N4CCC[C@@H](C(=O)N5CCOCC5)C4)CC3)c3ccccc3n2)cc1 [7a, (R)-(2-(4-Methoxyphenyl)quinolin-4-yl)(3-(morpholine-4-carbonyl)-[1,4′-bipiperidin]-1′-yl)methanone]
TC50 (concentration which reduces the cell viability by 50%) [1]: >100000 nM
IC50 [2]: 189 nM
IC50 [3]: 172 nM

COc1ccc(-c2cc(C(=O)N3CCC(N4CCC[C@@H](C(=O)N(C)Cc5ccccc5)C4)CC3)c3ccccc3n2)cc1 [7b, (R)-N-Benzyl-1'-(2-(4-methoxyphenyl)quinoline-4-carbonyl)-N-methyl-[1,4'-bipiperidine]-3-carbox-amide]
TC50 (concentration which reduces the cell viability by 50%) [1]: >100000 nM
IC50 [2]: 750 nM
melting point: 90 to 92 °C
IC50 [3]: 360 nM

CCN(CC)C(=O)[C@@H]1CCCN(C2CCN(C(=O)c3cc(-c4ccc(OC)cc4)nc4ccccc34)CC2)C1 [7c, (R)-N,N-Diethyl-1'-(2-(4-methoxyphenyl)quinoline-4-carbonyl)-[1,4'-bipiperidine]-3-carboxamide]
TC50 (concentration which reduces the cell viability by 50%) [1]: >100000 nM
IC50 [2]: 940 nM
melting point: 101 to 102 °C
IC50 [3]: 205 nM

COc1ccc(-c2cc(C(=O)N3CCC(N4CCC[C@@H](C(=O)N5CCN(C)CC5)C4)CC3)c3ccccc3n2)cc1 [7d, (R)-(2-(4-Methoxyphenyl)quinolin-4-yl)(3-(4-methylpiperazine-1-carbonyl)-[1,4'-bipiperidin]-1'-yl)-methanone]
TC50 (concentration which reduces the cell viability by 50%) [1]: >100000 nM
IC50 [2]: 620 nM
melting point: 108 to 110 °C
IC50 [3]: 294 nM

COc1ccc(-c2cc(C(=O)N3CCC(N4CCC[C@@H](C(=O)N5CCCC5)C4)CC3)c3ccccc3n2)cc1 [7e, (R)-(2-(4-Methoxyphenyl)quinolin-4-yl)(3-(pyrrolidine-1-carbonyl)-[1,4'-bipiperidin]-1'-yl)methanone]
TC50 (concentration which reduces the cell viability by 50%) [1]: >100000 nM
IC50 [2]: 750 nM
IC50 [3]: 382 nM

COc1ccc(-c2cc(C(=O)N3CCC(N4CCC[C@@H](C(=O)N5CCCCC5)C4)CC3)c3ccccc3n2)cc1 [7f, (R)-(2-(4-Methoxyphenyl)quinolin-4-yl)(3-(piperidine-1-carbonyl)-[1,4′-bipiperidin]-1′-yl)methanone]
IC50 [2]: > 1000 nM
melting point: 89 to 91 °C
IC50 [3]: 920 nM

O=C(c1cc(-c2ccccc2)nc2ccccc12)N1CCC(N2CCC[C@@H](C(=O)N3CCOCC3)C2)CC1 [7g, (R)-(3-(Morpholino-4-carbonyl)-[1,4'-bipiperidin]-1'-yl)(2-phenylquinolin-4-yl)methanone]
TC50 (concentration which reduces the cell viability by 50%) [1]: >100000 nM
IC50 [2]: 860 nM
melting point: 92 to 93 °C
IC50 [3]: 810 nM

O=C(c1cc(-c2ccc(Cl)cc2)nc2ccccc12)N1CCC(N2CCC[C@@H](C(=O)N3CCOCC3)C2)CC1 [7h, (R)-(2-(4-Chlorophenyl)quinolin-4-yl)(3-(morpholine-4-carbonyl)-[1,4'-bipiperidin]-1'-yl)methanone]
IC50 [2]: > 1000 nM
melting point: 87 to 89 °C
IC50 [3]: > 1000 nM

O=C(c1cc(-c2ccccc2Cl)nc2ccccc12)N1CCC(N2CCC[C@@H](C(=O)N3CCOCC3)C2)CC1 [7i, (R)-(2-(2-Chlorophenyl)quinolin-4-yl)(3-(morpholine-4-carbonyl)-[1,4'-bipiperidin]-1'-yl)methanone]
IC50 [2]: > 1000 nM
IC50 [3]: > 1000 nM

COc1ccc(-c2cc(C(=O)N3CCC4(CC3)CC(=O)c3ccccc3O4)c3ccccc3n2)cc1 [12a, 1'-(2-(4-Methoxyphenyl)quinoline-4-carbonyl)spiro[chroman-2,4'-piperidin]-4-one]
TC50 (concentration which reduces the cell viability by 50%) [1]: >100000 nM
IC50 [2]: 600 nM
IC50 [3]: 650 nM

COc1ccc(-c2cc(C(=O)N3CCC4(CC3)CC(=O)c3ccccc3O4)c3ccccc3n2)cc1OC [12b, 1'-(2-(3,4-Dimethoxyphenyl)quinoline-4-carbonyl)spiro[chroman-2,4'-piperidin]-4-one]
TC50 (concentration which reduces the cell viability by 50%) [1]: >100000 nM
IC50 [2]: 760 nM
IC50 [3]: 820 nM

Cc1ccccc1-c1cc(C(=O)N2CCC3(CC2)CC(=O)c2ccccc2O3)c2ccccc2n1 [12c, 1'-(2-(o-Tolyl)quinoline-4-carbonyl)spiro[chroman-2,4'-piperidin]-4-one]
IC50 [2]: > 1000 nM
IC50 [3]: > 1000 nM

O=C1CC2(CCN(C(=O)c3cc(-c4ccccc4Cl)nc4ccccc34)CC2)Oc2ccccc21 [12d, 1'-(2-(2-Chlorophenyl)quinoline-4-carbonyl)spiro[chroman-2,4'-piperidin]-4-one]
IC50 [2]: > 1000 nM
IC50 [3]: 940 nM

O=C1CC2(CCN(C(=O)c3cc(-c4ccc(Cl)cc4)nc4ccccc34)CC2)Oc2ccccc21 [12e, 1'-(2-(4-Chlorophenyl)quinoline-4-carbonyl)spiro[chroman-2,4'-piperidin]-4-one]
IC50 [2]: > 1000 nM
IC50 [3]: > 1000 nM

O=C1CC2(CCN(C(=O)c3cc(Cl)nc4ccccc34)CC2)Oc2ccccc21 [12f, 1'-(2-Chloroquinoline-4-carbonyl)spiro[chroman-2,4'-piperidin]-4-one]
IC50 [2]: > 1000 nM
IC50 [3]: > 1000 nM

O=C1CC2(CCN(C(=O)c3cc(N4CCOCC4)nc4ccccc34)CC2)Oc2ccccc21 [12g, 1'-(2-Morpholinoquinoline-4-carbonyl)spiro[chroman-2,4'-piperidin]-4-one]
IC50 [2]: > 1000 nM
melting point: 138 to 140 °C
IC50 [3]: > 1000 nM

O=C(c1c2ccccc2cc2ccccc12)N1CCC(N2CCC[C@@H](C(=O)N3CCOCC3)C2)CC1 [CP-640186, reference compound]
IC50 [4]: ~50 nM
TC50 (concentration which reduces the cell viability by 50%) [1]: >100000 nM
IC50 [5]: ~50 nM
IC50 [3]: 185 nM
